Laboratory results as given in US6048854A, “2,3-diaminopropionic acid derivative” (Sumitomo Pharmaceuticals Company, Limited, priority 1993, dated 2000).
Where two headings read alike, the source gives them in different places. Each block holds one compound with its values, some of them ahead of it.

How the values were obtained:
[1] = test system: platelet aggregation; experiment: Platelet aggregation inhibitory activity (ADP-induced, human platelet rich plasma); assay type: cell-based; details: Homo sapiens
Procedure: The blood was collected from the elbow vein of a normal volunteer with mixing thereof with 1/10 volume of 3.8% sodium citrate, and the blood was centrifuged at 1000 rpm (150 g) for 10 minutes to give the supernatant as platelet rich plasma (PRP). To PRP (200 μl) was added a test compound solution (2 μl), and the mixture was incubated with stirring at 1000 rpm at 37° C. for two minutes, and thereto was added a platelet aggregator, adenosine diphosphate (ADP, 22 μl) at a final concentration of 3 μg/ml. The platelet aggregation activity was determined by nephelometric analysis using a Hematracer (manufactured by Niko Bioscience, Ltd.). The test results of platelet aggregation inhibitory activity are expressed by IC50, which is a concentration of the test compound being required to inhibit the platelet aggregation reaction by 50%.
The compounds of Examples 18 to 70 were tested in the same manner as in Example 17.
The compounds of Examples 72 to 116 were tested in the same manner as in Example 17.

[2] = test system: platelet aggregation; experiment: Platelet aggregation inhibitory activity (ex vivo) after oral administration; assay type: in vivo; details: Cavia porcellus, guinea pig, oral 0.1 mg/kg, ADP 10 μg/ml
Procedure: A canula for collecting blood was inserted into the left common carotid artery of a guinea pig which was anesthetized with pentobarbital (30 mg/kg, i.p.). The blood (1 ml) was taken with a syringe containing 1/10 volume of 3.8% sodium citrate (Kettin-citrate, manufactured by Kokusai Shiyaku Ltd.), and the platelet aggregation ability thereof was measured (as a value before administration). Then, a test compound was orally administered to the guinea pig at a dose of 0.1 mg/kg in a volume of 5 ml/kg, and the blood was collected periodically likewise at 0.5, 1, 2, 4 and 6 hours after the administration of the test compound, and the platelet aggregation ability thereof was measured.
The determination of the platelet aggregation ability was carried out by turbidimetry using a Hematracer (Niko Bioscience) as follows. That is, the blood was centrifuged at 4500 rpm at room temperature for 10 seconds, and the supernatant was considered as platelet rich plasma (PRP), and the precipitate was centrifuged at 11000 rpm for two minutes and its supernatant was considered as platelet poor plasma (PPP), and the photo-transmittance of the PRP and the PPP was adjusted to 0%, and 100%, respectively. A cubet containing PRP (200 μl) was inserted to a measurement well, and […] at 1000 rpm at 37° C. for two minutes, and thereto was added a platelet aggregator; ADP (adenosine diphosphate, Sigma Ltd., 20 μl, final concentration; 10 μg/ml), and the maximum aggregation rate was measured. From the maximum aggregation rate before the administration of the test compound (MAR control) and the maximum aggregation rate after the administration of the test compound (MAR sample), the platelet aggregation inhibitory rate of each test compound was estimated according to the following equation.
Inhibitory rate (%)=(1-(MAR sample/MAR control))×100
The periodical change in the platelet aggregation inhibitory rate of each test compound at a dose of 0.1 mg/kg of oral administration is shown in Table 5.

[3] = 0.5 hr, read-out: platelet aggregation inhibitory rate (%), 0.5 hr
[4] = 1 hr, read-out: platelet aggregation inhibitory rate (%), 1 hr
[5] = 2 hrs, read-out: platelet aggregation inhibitory rate (%), 2 hrs
[6] = 4 hrs, read-out: platelet aggregation inhibitory rate (%), 4 hrs
[7] = 6 hrs, read-out: platelet aggregation inhibitory rate (%), 6 hrs
[8] = Table 3, same manner as Example 17

SMILES: N=C(N)c1ccc(CCCCC(=O)NC[C@H](NS(=O)(=O)c2ccccc2)C(=O)O)cc1 [Example 67]
- IC50 ([1]; Table 2, same manner as Example 17): 32 nM
- inhibition in vivo at 0.1 mg/kg [2, 3]: 88%
- inhibition in vivo at 0.1 mg/kg [2, 4]: 71%
- inhibition in vivo at 0.1 mg/kg [2, 5]: 69%
- inhibition in vivo at 0.1 mg/kg [2, 6]: 31%
- inhibition in vivo at 0.1 mg/kg [2, 7]: 10%

SMILES: N=C(NC1CCCCC1)c1ccc(C(=O)NCCC(=O)NC[C@H](NS(=O)(=O)c2ccccc2)C(=O)O)cc1 [Example 105, (2S)-2-benzenesulfonylamino-3-(3-(4-(N-cyclohexylamidino)benzoylamino)propanoylamino)propanoic Acid]
- IC50 [1, 8]: 22 nM

SMILES: N=C(NCc1ccccc1)c1ccc(C(=O)NCCC(=O)NC[C@H](NS(=O)(=O)c2ccccc2)C(=O)O)cc1 [Example 106, (2S)-2-benzenesulfonylamino-3-(3-(4-(N-benzylamidino)benzoylamino)propanoylamino)propanoic Acid]
- IC50 [1, 8]: 116 nM

SMILES: CNC(=N)c1ccc(OCCCC(=O)NC[C@H](NS(=O)(=O)c2ccccc2)C(=O)O)cc1 [Example 107, (2S)-2-benzenesulfonylamino-3-(4-(4-(N-methylamidino)phenoxy)butanoylamino)propanoic Acid]
- IC50 [1, 8]: 29 nM

SMILES: CCNC(=N)c1ccc(OCCCC(=O)NC[C@H](NS(=O)(=O)c2ccccc2)C(=O)O)cc1 [Example 108, (2S)-2-benzenesulfonylamino-3-(4-(4-(N-ethylamidino)phenoxy)butanoylamino)propanoic Acid]
- IC50 [1, 8]: 51 nM

SMILES: N=C1NCCc2cc(OCCCC(=O)NC[C@H](NS(=O)(=O)c3ccccc3)C(=O)O)ccc21 [Example 111, (2S)-2-benzenesulfonylamino-3-(4-(6-(1-imino-1,2,3,4-tetrahydroisoquinolyl)oxy)butanoylamino)propanoic Acid]
- IC50 [1, 8]: 41 nM

SMILES: CC(C)(C)C(=O)OCOC(=O)[C@H](CNC(=O)CCCOc1ccc(C(=N)N)cc1)NS(=O)(=O)c1ccccc1 [Example 113, (2S)-3-(4-(4-amidinophenoxy)butanoylamino)-2-benzenesulfonylaminopropanoicAcid Pivaloyloxymethyl Ester]
- IC50 [1, 8]: 48 nM

SMILES: NC(=O)c1ccc(C(=O)NCCC(=O)NC[C@H](NS(=O)(=O)c2ccccc2N)C(=O)O)cc1 [Example 114, (2S)-2-(2-amino)benzenesulfonylamino-3-(3-(4-carbamoylbenzoylamino)propanoylamino)propanoic Acid]
- IC50 [1, 8]: 35 nM

SMILES: CCc1ccc(S(=O)(=O)N[C@@H](CNC(=O)CCNC(=O)c2ccc(C(=N)N)cc2)C(=O)OCOC(=O)C(C)(C)C)cc1 [Example 116, (2S)-3-(3-(4-amidinobenzoylamino)propanoylamino)-2-(4-ethyl)benzenesulfonylaminopropanoic Acid Pivaloyloxymethyl Ester]
- IC50 [1, 8]: 103 nM

Further lines, with some results ahead:

- IC50 [1, 8]: 57 nM
SMILES: CNC(=N)c1ccc(C(=O)NCCC(=O)NC[C@H](NS(=O)(=O)c2ccccc2)C(=O)O)cc1 [Example 98, (2S)-2-benzenesulfonylamino-3-(3-(4-(N-methylamidino)benzoylamino)propanoylamino)propanoic Acid]
- inhibition in vivo at 0.1 mg/kg [2, 3]: 94%
- inhibition in vivo at 0.1 mg/kg [2, 4]: 100%
- inhibition in vivo at 0.1 mg/kg [2, 5]: 100%
- inhibition in vivo at 0.1 mg/kg [2, 6]: 100%
- inhibition in vivo at 0.1 mg/kg [2, 7]: 100%

- IC50 [1, 8]: 17 nM
SMILES: CCNC(=N)c1ccc(C(=O)NCCC(=O)NC[C@H](NS(=O)(=O)c2ccccc2)C(=O)O)cc1 [Example 99, (2S)-2-benzenesulfonylamino-3-(3-(4-(N-ethylamidino)benzoylamino)propanoylamino)propanoic Acid]
- inhibition in vivo at 0.1 mg/kg [2, 3]: 100%
- inhibition in vivo at 0.1 mg/kg [2, 4]: 100%
- inhibition in vivo at 0.1 mg/kg [2, 5]: 100%
- inhibition in vivo at 0.1 mg/kg [2, 6]: 100%
- inhibition in vivo at 0.1 mg/kg [2, 7]: 100%

- IC50 [1, 8]: 28 nM
SMILES: CN(C)C(=N)c1ccc(C(=O)NCCC(=O)NC[C@H](NS(=O)(=O)c2ccccc2)C(=O)O)cc1 [Example 100, (2S)-2-benzenesulfonylamino-3-(3-(4-(N,N-dimethylamidino)benzoylamino)propanoylamino)propanoic Acid]
- inhibition in vivo at 0.1 mg/kg [2, 3]: 100%
- inhibition in vivo at 0.1 mg/kg [2, 4]: 100%
- inhibition in vivo at 0.1 mg/kg [2, 5]: 100%
- inhibition in vivo at 0.1 mg/kg [2, 6]: 100%
- inhibition in vivo at 0.1 mg/kg [2, 7]: 100%

- IC50 [1, 8]: 35 nM
SMILES: CC(=O)NNC(=N)c1ccc(C(=O)NCCC(=O)NC[C@H](NS(=O)(=O)c2ccccc2)C(=O)O)cc1 [Example 102, (2S)-2-benzenesulfonylamino-3-(3-(4-acetylhydrazinoiminobenzoylamino)propanoylamino)propanoic Acid]

- IC50 [1, 8]: 25 nM
SMILES: CCCCNC(=N)c1ccc(C(=O)NCCC(=O)NC[C@H](NS(=O)(=O)c2ccccc2)C(=O)O)cc1 [Example 103, (2S)-2-benzenesulfonylamino-3-(3-(4-(N-n-butylamidino)benzoylamino)propanoylamino)propanoic Acid]

- IC50 [1, 8]: 28 nM
SMILES: CCCCCCNC(=N)c1ccc(C(=O)NCCC(=O)NC[C@H](NS(=O)(=O)c2ccccc2)C(=O)O)cc1 [Example 104, (2S)-2-benzenesulfonylamino-3-(3-(4-(N-n-hexylamidino)benzoylamino)propanoylamino)propanoic Acid]
